23 compounds from patent publication US11919888B2, “Neprilysin inhibitors” (THERAVANCE BIOPHARMA R&D IP, LLC, priority 2012, dated 2024) can be followed below.

Structures are written as SMILES. A value given as a limit tells only on which side of the number the result lay.

The target of this assay is T1, human NEP (Homo sapiens, UniProt P08473).
T1 construct: purchased R&D Systems, Minneapolis, MN 1182-ZN
T1 sequence (P08473 52-750 limits assumed): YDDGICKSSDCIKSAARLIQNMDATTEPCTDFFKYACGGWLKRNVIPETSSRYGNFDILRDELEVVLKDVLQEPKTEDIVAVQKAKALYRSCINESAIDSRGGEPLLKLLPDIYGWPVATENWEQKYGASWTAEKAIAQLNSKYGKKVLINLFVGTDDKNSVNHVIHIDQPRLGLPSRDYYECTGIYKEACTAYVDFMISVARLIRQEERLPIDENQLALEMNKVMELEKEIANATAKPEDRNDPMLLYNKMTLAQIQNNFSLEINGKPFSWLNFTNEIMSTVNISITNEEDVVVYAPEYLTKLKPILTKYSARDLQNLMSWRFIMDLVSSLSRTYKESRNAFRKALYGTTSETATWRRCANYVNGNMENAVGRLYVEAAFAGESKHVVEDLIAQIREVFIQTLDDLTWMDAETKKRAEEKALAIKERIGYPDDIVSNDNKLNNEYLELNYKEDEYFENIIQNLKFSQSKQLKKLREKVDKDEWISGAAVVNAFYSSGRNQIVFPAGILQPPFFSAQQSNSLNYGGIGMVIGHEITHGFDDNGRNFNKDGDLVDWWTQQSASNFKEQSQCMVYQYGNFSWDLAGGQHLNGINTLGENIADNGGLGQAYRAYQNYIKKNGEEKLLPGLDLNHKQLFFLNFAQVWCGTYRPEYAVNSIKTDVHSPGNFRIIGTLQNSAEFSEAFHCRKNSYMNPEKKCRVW
The assay is described as follows: In vitro enzyme inhibition assay at human NEP (fluorogenic peptide substrate). The class given is biochemical. The note with it: recombinant human NEP; 10 μM fluorogenic substrate Mca-D-Arg-Arg-Leu-Dap-(Dnp)-OH; 37° C.; 30 minute preincubation; read-out: pKi value at human NEP (converted). The method, then:
In Vitro Assays for the Quantitation of Inhibitor Potencies (IC50) at Human and Rat NEP, and Human ACE
The inhibitory activities of compounds at human and rat neprilysin (EC 3.4.24.11; NEP) and human angiotensin converting enzyme (ACE) were determined using in vitro assays as described below.
Recombinant human NEP and recombinant human ACE were obtained commercially (R&D Systems, Minneapolis, MN, catalog numbers 1182-ZN and 929-ZN, respectively). The fluorogenic peptide substrate Mca-D-Arg-Arg-Leu-Dap-(Dnp)-OH (Medeiros et al. (1997) Braz. J. Med. Biol. Res. 30:1157-62; Anaspec, San Jose, CA) and Abz-Phe-Arg-Lys(Dnp)-Pro-OH (Araujo et al. (2000) Biochemistry 39:8519-8525; Bachem, Torrance, CA) were used in the NEP and ACE assays respectively.
The assays were performed in 384-well white opaque plates at 37° C. using the fluorogenic peptide substrates at a concentration of 10 μM in Assay Buffer (NEP: 50 mM HEPES, pH 7.5, 100 mM NaCl, 0.01% polyethylene glycol sorbitan monolaurate (Tween-20), 10 μM ZnSO4; ACE: 50 mM HEPES, pH 7.5, 100 mM NaCl, 0.01% Tween-20, 1 μM ZnSO4).
Test compounds were assayed over the range of concentrations from 10 μM to 20 pM. Test compounds were added to the enzymes and incubated for 30 minute at 37° C. prior to initiating the reaction by the addition of substrate. Reactions were terminated after 20 minutes of incubation at 37° C. by the addition of glacial acetic acid to a final concentration of 3.6% (v/v).
Plates were read on a fluorometer with excitation and emission wavelengths set to 320 nm and 405 nm, respectively. Inhibition constants were obtained by nonlinear regression of the data using the equation (GraphPad Software, Inc., San Diego, CA): ν=ν0/[1+(I/K′)] where ν is the reaction rate, ν0 is the uninhibited reaction rate, I is the inhibitor concentration and K′ is the apparent inhibition constant.
`CCOn1cc(C(=O)N[C@H](Cc2ccc(-c3cc(Cl)ccc3F)cc2)C[C@@](C)(CO)C(=O)O)nn1` [Example 4C, (2S,4R)-5-(5′-Chloro-2′-fluorobiphenyl-4-yl)-4-[(1-ethoxy-1H-[1,2,3]triazole-4-carbonyl)-amino]-2-hydroxymethyl-2-methylpentanoic Acid]: the Ki was ≤ 1 nM. On to `C[C@@](CO)(C[C@@H](Cc1ccc(-c2cc(Cl)ccc2F)cc1)NC(=O)c1coc(=O)[nH]1)C(=O)O` [Example 5C, (2S,4R)-5-(5′-Chloro-2′-fluorobiphenyl-4-yl)-2-hydroxymethyl-2-methyl-4-[(2-oxo-2,3-dihydro-oxazole-4-carbonyl)amino]pentanoic Acid], for which the Ki was ≤ 1 nM.

On to `C[C@@](CO)(C[C@@H](Cc1ccc(-c2cc(Cl)ccc2F)cc1)NC(=O)c1c[nH]c(=O)o1)C(=O)O` [Example 5D, (2S,4R)-5-(5′-Chloro-2′-fluorobiphenyl-4-yl)-2-hydroxymethyl-2-methyl-4-[(2-oxo-2,3-dihydro-oxazole-5-carbonyl)amino]pentanoic Acid], for which the Ki was ≤ 1 nM. With `COc1cc(C(=O)N[C@H](Cc2ccc(-c3cccc(Cl)c3)cc2)C[C@@](C)(CO)C(=O)O)on1` [Example 6A, (2S,4R)-5-(3′-Chlorobiphenyl-4-yl)-2-hydroxymethyl-4-[(3-methoxyisoxazole-5-carbonyl)amino]-2-methylpentanoic Acid], the Ki is ≤ 1 nM. As for `COC[C@](C)(C[C@@H](Cc1ccc(-c2cccc(Cl)c2)cc1)NC(=O)c1cc(OC)no1)C(=O)O` [Example 6B, (2S,4R)-5-(3′-Chlorobiphenyl-4-yl)-4-[(3-methoxyisoxazole-5-carbonyl)amino]-2-methoxymethyl-2-methylpentanoic Acid], the figure is 10 to 100 nM; as for `COc1cc(C(=O)N[C@H](Cc2ccc(-c3cc(Cl)ccc3F)cc2)C[C@@](C)(CO)C(=O)O)on1` [Example 6G, (2S,4R)-5-(5′-Chloro-2′-fluorobiphenyl-4-yl)-2-hydroxymethyl-4-[(3-methoxyisoxazole-5-carbonyl)amino]-2-methylpentanoic Acid], ≤ 1 nM. For `CCc1cc(C(=O)N[C@H](Cc2ccc(-c3cc(Cl)ccc3F)cc2)C[C@@](C)(CO)C(=O)O)on1` [Example 6H], the Ki is ≤ 1 nM.

On to `CC(C)Cc1cc(C(=O)N[C@H](Cc2ccc(-c3cc(Cl)ccc3F)cc2)C[C@@](C)(CO)C(=O)O)on1` [Example 6I, (2S,4R)-5-(5′-Chloro-2′-fluorobiphenyl-4-yl)-2-hydroxymethyl-4-[(3-isobutylisoxazole-5-carbonyl)amino]-2-methylpentanoic Acid], for which the Ki was ≤ 1 nM. In the case of `CCCc1cc(C(=O)N[C@H](Cc2ccc(-c3cc(Cl)ccc3F)cc2)C[C@@](C)(CO)C(=O)O)on1` [Example 6J, (2S,4R)-5-(5′-Chloro-2′-fluorobiphenyl-4-yl)-2-hydroxymethyl-2-methyl-4-[(3-propylisoxazole-5-carbonyl)amino]pentanoic Acid], the Ki is ≤ 1 nM.

For the compound `COC[C@](C)(C[C@@H](Cc1ccc(-c2cc(Cl)ccc2F)cc1)NC(=O)c1cc(O)no1)C(=O)O` [Example 6K, (2S,4R)-5-(5′-Chloro-2′-fluorobiphenyl-4-yl)-4-[(3-hydroxyisoxazole-5-carbonyl)amino]-2-methoxymethyl-2-methylpentanoic Acid], the Ki was 1 to 3.16 nM. For the compound `C[C@@](COCCO)(C[C@@H](Cc1ccc(-c2cccc(Cl)c2)cc1)NC(=O)c1cc(O)no1)C(=O)O` [Example 6L, (2S,4R)-5-(3′-Chlorobiphenyl-4-yl)-2-(2-hydroxyethoxymethyl)-4-[(3-hydroxyisoxazole-5-carbonyl)amino]-2-methylpentanoic Acid], the Ki is ≤ 1 nM. As for `CCOC[C@](C)(C[C@@H](Cc1ccc(-c2cccc(Cl)c2)cc1)NC(=O)c1cc(O)no1)C(=O)O` [Example 6M], the figure is ≤ 1 nM.

`CCOC[C@](C)(C[C@@H](Cc1ccc(-c2cc(Cl)ccc2F)cc1)NC(=O)c1cc(O)no1)C(=O)O` [Example 6N, (2S,4R)-5-(5′-Chloro-2′-fluorobiphenyl-4-yl)-2-ethoxymethyl-4-[(3-hydroxyisoxazole-5-carbonyl)amino]-2-methylpentanoic Acid]: the Ki was ≤ 1 nM. For `CCOC[C@](C)(C[C@@H](Cc1ccc(-c2cc(Cl)ccc2F)cc1)NC(=O)c1cc(CC)no1)C(=O)O` [Example 6O, (2S,4R)-5-(5′-Chloro-2′-fluorobiphenyl-4-yl)-2-ethoxymethyl-4-[(3-ethylisoxazole-5-carbonyl)amino]-2-methylpentanoic Acid], the Ki is ≤ 1 nM.

On to `CCOc1cc(C(=O)N[C@H](Cc2ccc(-c3cccc(Cl)c3)cc2)C[C@@](C)(CO)C(=O)O)n[nH]1` [Example 7A, (2S,4R)-5-(3′-Chlorobiphenyl-4-yl)-4-[(5-ethoxy-1H-pyrazole-3-carbonyl)amino]-2-hydroxymethyl-2-methylpentanoic Acid], for which the Ki is ≤ 1 nM. As for `CCOc1cc(C(=O)N[C@H](Cc2ccc(-c3cc(Cl)ccc3F)cc2)C[C@@](C)(CO)C(=O)O)n[nH]1` [Example 7B, (2S,4R)-5-(5′-Chloro-2′-fluorobiphenyl-4-yl)-4-[(5-ethoxy-1H-pyrazole-3-carbonyl)-amino]-2-hydroxymethyl-2-methylpentanoic Acid], the Ki was ≤ 1 nM. On to `CC(C)c1cc(C(=O)N[C@H](Cc2ccc(-c3cc(Cl)ccc3F)cc2)C[C@@](C)(CO)C(=O)O)[nH]n1` [Example 7C, (2S,4R)-5-(5′-Chloro-2′-fluorobiphenyl-4-yl)-2-hydroxymethyl-4-[(5-isopropyl-2H-pyrazole-3-carbonyl)amino]-2-methylpentanoic Acid], for which the Ki is ≤ 1 nM. For the compound `CCOc1cc(C(=O)N[C@H](Cc2ccc(-c3cc(Cl)ccc3F)cc2)C[C@@](C)(COC)C(=O)O)[nH]n1` [Example 7D, (2S,4R)-5-(5′-Chloro-2′-fluorobiphenyl-4-yl)-4-[(5-ethoxy-2H-pyrazole-3-carbonyl)-amino]-2-methoxymethyl-2-methylpentanoic Acid], the Ki was 1 to 3.16 nM. For the compound `COc1cc(C(=O)N[C@H](Cc2ccc(-c3cc(Cl)ccc3F)cc2)C[C@@](C)(CO)C(=O)O)n[nH]1` [Example 7E, (2S,4R)-5-(5′-Chloro-2′-fluorobiphenyl-4-yl)-2-hydroxymethyl-4-[(5-methoxy-1H-pyrazole-3-carbonyl)amino]-2-methylpentanoic Acid], the Ki is ≤ 1 nM. Take `CC(C)Cc1cc(C(=O)N[C@H](Cc2ccc(-c3cc(Cl)ccc3F)cc2)C[C@@](C)(CO)C(=O)O)[nH]n1` [Example 7F, (2S,4R)-5-(5′-Chloro-2′-fluorobiphenyl-4-yl)-2-hydroxymethyl-4-[(5-isobutyl-2H-pyrazole-3-carbonyl)amino]-2-methylpentanoic Acid]: the Ki was ≤ 1 nM.

`CC(=O)c1cc(C(=O)N[C@H](Cc2ccc(-c3cc(Cl)ccc3F)cc2)C[C@@](C)(CO)C(=O)O)[nH]n1` [Example 8A, (2S,4R)-4-[(5-Acetyl-2H-pyrazole-3-carbonyl)amino]-5-(5′-chloro-2′-fluorobiphenyl-4-yl)-2-hydroxymethyl-2-methylpentanoic Acid]: the Ki was ≤ 1 nM. In the case of `COC[C@](C)(C[C@@H](Cc1ccc(-c2cc(Cl)ccc2F)cc1)NC(=O)c1cc(C(C)=O)n[nH]1)C(=O)O` [Example 8B, (2S,4R)-4-[(5-Acetyl-2H-pyrazole-3-carbonyl)amino]-5-(5′-chloro-2′-fluorobiphenyl-4-yl)-2-methoxymethyl-2-methylpentanoic Acid], the Ki is 1 to 3.16 nM.

As to `CCOC[C@](C)(C[C@@H](Cc1ccc(-c2cc(Cl)ccc2F)cc1)NC(=O)c1cc(C(C)=O)[nH]n1)C(=O)O` [Example 8C, (2S,4R)-4-[(5-Acetyl-1H-pyrazole-3-carbonyl)amino]-5-(5′-chloro-2′-fluorobiphenyl-4-yl)-2-ethoxymethyl-2-methylpentanoic Acid], the Ki is ≤ 1 nM.
